Data reported in the SangsterLogP compilation.
Values belong to the compound of their own block, whether it stands above or below them.

Tests used:
[1] = method code SF, from DOI: 10.1016/0378-5173(87)90234-1
[2] = method code SF-GLC, from DOI: 10.1016/0045-6535(83)90264-3
[3] = not given; remark: listed apart in the source
[4] = method code SF, from DOI: 10.1002/ps.2780340212; settings: pH 7.0
[5] = method code SF-AS, from DOI: 10.1021/jm00069a002, PMID: 8355246; settings: pH 7.4
[6] = not given; remark: listed apart in the source
[7] = method code SF-AS, from DOI: 10.1016/j.ejmech.2003.11.003, PMID: 14987836
[8] = method code SF-HPLC, from Blakemore, C.; Brown, H.; Durant, J.; Emmett, C.; Ganellin, R.; Parsons, E.; Rasmussen, C. (1980). SK&F 92994: a new histamine H2-receptor antagonist. COMMUNICATIONS: Part II. Br. J. Pharmacol., …
[9] = method code SF-AS, from DOI: 10.1016/0006-2952(65)90227-3, PMID: 14322976; settings: pH 6.8
[10] = method code SF-GLC,AS, from DOI: 10.2134/jeq1981.00472425001000030028x
[11] = not given; remark: listed apart in the source
[12] = not given; remark: listed apart in the source
[13] = method code SF-AS, from Frater-Schröder, M.; Alder, S.; Zbinden, G. (1976). Neurotoxic effects of pyridoxine and analogs in rats. Proc. Eur. Soc. Toxicol, 17, 277-284.; settings: pH 7.4
[14] = method code SF-RC, from DOI: 10.1016/0014-2999(79)90231-0, PMID: 527663
[15] = not given; remark: listed apart in the source
[16] = method code SF-RC, from DOI: 10.1002/ps.2780130506
[17] = method code SF, from DOI: 10.1002/em.2850190108, PMID: 1732104
[18] = not given; remark: listed apart in the source
[19] = not given; remark: listed apart in the source
[20] = not given; remark: listed apart in the source
[21] = method code SF-GLC, from DOI: 10.1021/j100260a019
[22] = not given; remark: listed apart in the source
[23] = method code SF-GLC, from DOI: 10.1007/bf00343116, PMID: 4026577
[24] = method code SF, from Korenman, Y. (1975). Extraction of hydroxybenzoic acids and some of their derivatives from aqueous solution. Zh. Prikl. Khim., 48(6)1472-1474.; settings: pH 2.0
[25] = not given; remark: listed apart in the source
[26] = method code SF-MS, from DOI: 10.1016/j.fluid.2014.01.017; settings: pH 7.6
[27] = method code SF-AS, from DOI: 10.1007/bf02922495
[28] = method code SF-AS, from DOI: 10.1007/s001289900721, PMID: 9657823
[29] = method code SF-AS, from DOI: 10.1021/jm00304a030, PMID: 5793164; settings: pH 7.4
[30] = not given; remark: listed apart in the source
[31] = not given; remark: listed apart in the source
[32] = method code SF-AS, from DOI: 10.1002/jhet.5570150704
[33] = method code SF-GLC, from DOI: 10.1016/s0003-2670(00)84505-5
[34] = not given; remark: listed apart in the source
[35] = method code SF-C, from DOI: 10.1021/ja00901a033
[36] = not given; remark: listed apart in the source
[37] = method code SF-RC, from PMID: 3794812
[38] = method code SF-HPLC, from DOI: 10.1002/jat.2550130210, PMID: 8486911; settings: pH 13.0
[39] = method code SF-RC, from DOI: 10.1182/blood.v76.11.2389.bloodjournal76112389, PMID: 2257308; settings: pH 7.4
[40] = not given; remark: listed apart in the source

Compound: Cc1c(Cl)cccc1[N+](=O)[O-]
logP [3]: 3.09

Compound: CC(C)(C)C(=O)C(Oc1ccc(Cl)cc1)n1cncn1 (configuration not stated)
logD [4]: 2.9

Compound: CN(Cc1ccc(Br)cc1)N=O
logP [8]: 1.57

Compound: O=Nc1ccc(O)c(=O)cc1
logD [9]: 0.83

Compound: Nc1c([N+](=O)[O-])cc(C(F)(F)F)cc1[N+](=O)[O-]
logP [10]: 2.29

Compound: Cc1ccccc1[N+](=O)[O-]
logP [12]: 2.17

Compound: Cc1ncc(CO)c(CO)c1O
logD [13]: -0.77

Compound: CCCNc1c([N+](=O)[O-])cc(C(F)(F)F)cc1[N+](=O)[O-]
logP [10]: 3.65

Compound: NC(=O)Nc1ccc(Cl)cc1
logP [16]: 1.8

Compound: CN(Cc1cccc(Br)c1)N=O
logP [8]: 1.65

Compound: O=[N+]([O-])c1cccc2cccc([N+](=O)[O-])c12
logP [17]: 2.52

Compound: CCOc1cc(Cl)c(Cl)c(Cl)c1
logP [18]: 4.61

Compound: CN(C)c1cc[n+]([O-])cc1
logP [20]: -0.9

Compound: N#CCCCCCC#N
logP [23]: 0.05

Compound: Cc1cccc(C)c1
logP [25]: 3.37

Compound: N#CCCCCCCC#N
logP [23]: 0.59

Compound: CCCC/C=C/C=O
logD [26]: 2.06

Compound: N#CC(C#N)=Cc1ccc(Br)o1
logP [27]: 2.28

Compound: N#Cc1ccccc1
logP [25]: 1.5

Compound: [O-][n+]1ccc(-c2ccccc2)cc1
logP [20]: 0.93

Compound: O=Cc1cc(O)ccc1O
logP [28]: 0.54

Compound: c1ccc2[nH]ncc2c1
logD [29]: 1.82

Compound: O=C(O)c1cc(Br)ccc1O
logD [24]: 2.87

Compound: CC(=O)c1ccc(OCC(=O)O)cc1
logP [35]: 1.08

Compound: COc1ccc(OC)c(C=O)c1
logP [28]: 1.91

Compound: Cc1ccc(C=C(C#N)C#N)o1
logP [27]: 2.03

Compound: CC(C)c1ccccc(=O)c1O
logD [9]: 0.96

Compound: C=CCNCC=C
logD [38]: 1.08

Compound: COc1ccc(N)cc1
logP [30]: 0.98

Compound: Cc1cccc([N+](=O)[O-])c1
logP [3]: 2.4

Compound: O=C1Cc2ccccc2N1
logD [29]: 1.15

Compound: NC(=O)c1ccccc1C(N)=O
logP [19]: 1.08

Compound: Cc1ncc(CO)c(C=O)c1O
logD [13]: -0.82

Compound: COC(=O)[C@@H]1CCCN1S(=O)(=O)N(CCCl)N=O
logP [7]: -0.19

Compound: c1ccc(-c2nnn[nH]2)cc1
logP [40]: 1.5

Compound: CC(=O)c1ccccc1[N+](=O)[O-]
logP [17]: 1.53

Now from value to compound:

logD ([1]; pH 7.4): -0.21
Compound: CCC(=O)n1c(=O)[nH]cc(F)c1=O

logP [2]: -1.45
Compound: O=C(O)c1c(C(=O)O)c(C(=O)O)c(C(=O)O)c(C(=O)O)c1C(=O)O

logP: 1.39
Compound: O=C(O)c1cccc(O)c1

logD [5]: 0.05
Compound: CCc1[nH]ccc(=O)c1O

logP [6]: 1.43
Compound: NS(=O)(=O)c1nnc(-c2ccccc2Cl)s1

logP [7]: 1.03
Compound: O=NN(CCCl)S(=O)(=O)N1CCCCC1

logP [11]: -1.22
Compound: Cc1cccc(C(=O)O)n1

logP [14]: 3.62
Compound: CCC(c1ccccc1)c1c(O)c2ccccc2oc1=O (configuration not stated)

logP [15]: -0.11
Compound: O=C(NCCO)c1cccnc1

logP [15]: 0.59
Compound: CC(C)NC(=O)c1cccnc1

logP [19]: 1.9
Compound: COc1cccc(C(=O)O)c1

logP [21]: 2.78
Compound: CC(C)COCC(C)C

logP [22]: -0.05
Compound: O=[N+]([O-])c1nccn1C1OCC(I)CC1O (configuration not stated)

logP [11]: 0.45
Compound: O=C(O)c1cccc(C(=O)O)n1

logD [24]: 1.05
Compound: O=C(O)c1ccc(O)c(O)c1O

logP [6]: 0.22
Compound: NS(=O)(=O)c1nnc(NS(=O)(=O)c2ccccc2)s1

logD [5]: -0.1
Compound: CCCCNC(=O)CCn1ccc(=O)c(O)c1C

logP [2]: 3.15
Compound: CSc1nc2ccccc2s1

logD [26]: 2.53
Compound: CCCCCCCC=O

logP [30]: 1.25
Compound: CC(=O)c1ccccc1N

logP [31]: 1.68
Compound: CCC(CC)C(=O)O

logP [32]: 0.24
Compound: CNC(=O)OCc1cccc(COC(=O)NC)n1

logP [33]: 4.42
Compound: COc1c(O)c(Cl)c(Cl)c(Cl)c1Cl

logP [34]: 0.42
Compound: CC(CS)C(=O)N1CCC[C@H]1C(=O)O (some centres not stated)

logP [32]: 0.79
Compound: Cc1nc(-c2ccccn2)no1

logP [34]: 0.64
Compound: NS(=O)(=O)c1cc2c(cc1Cl)NC(C(Cl)Cl)NS2(=O)=O (configuration not stated)

logP [36]: -0.82
Compound: Cn1cnc2c1c(=O)[nH]c(=O)n2C

logP [18]: 4.1
Compound: COc1cc(Cl)c(Cl)c(Cl)c1

logP [37]: 1.02
Compound: COCC(O)Cn1c([N+](=O)[O-])nc(Br)c1Br (configuration not stated)

logP [22]: 0.7
Compound: O=[N+]([O-])C1NC=CN1C1OC(CI)C(O)C1O (configuration not stated)

logP [33]: 3.19
Compound: COc1cc(Cl)c(Cl)cc1O

logP [35]: 2.45
Compound: O=C(O)COc1ccc(Br)cc1

logP [21]: 1.22
Compound: CC1CCC(C)O1 (configuration not stated)

logP [16]: 1.57
Compound: CSc1cccc(NC(N)=O)c1

logD [39]: -0.3
Compound: CCc1c(O)c(=O)ccn1C

logD ([1]; pH 4.0): 1.42
Compound: O=C(OC1CCCCC1)n1cc(F)c(=O)[nH]c1=O

logP [37]: 0.16
Compound: COCC(O)Cn1c(Br)cnc1[N+](=O)[O-] (configuration not stated)

logD [4]: 0.8
Compound: Cc1ccc(NC(N)=O)cc1

logD ([14]; pH 1.0): -2.57
Compound: O=C(O)[C@H]1O[C@H](O)[C@H](O)[C@@H](O)[C@@H]1O

logD [38]: 2.67
Compound: CC(C)CNCC(C)C

logP [36]: 0.29
Compound: CC(=O)CCCCn1c(=O)c2c(ncn2C)n(C)c1=O

logP [40]: 1.81
Compound: Brc1ccccc1-c1nnn[nH]1

logP: 2.19
Compound: O=C(O)c1ccccc1Br

logP [12]: 0.37
Compound: CCN(CC)C(C)=O

logD [39]: -0.52
Compound: COCCn1ccc(=O)c(O)c1C

logP [31]: 3.2
Compound: CCCCCC(CCC)C(=O)O (configuration not stated)
